Holding throughout (assay type): biochemical
For one test, the target named is T1, PI3Kδ (p110δ/p85α)(h) (Homo sapiens, UniProt O00329).
T1 construct: purchased Upstate (Millipore Co, Billerica, Mass., USA) #14˜604
Kind of test: PI3K-HTRF in vitro enzyme assay, PI3Kδ. Particulars: enzyme 0.1 μg/ml. The protocol:
(§1) The compounds of the present invention were tested for the activity of phosphatidylinositol 3-kinase delta (PI3K) by using a PI3K enzyme-homogeneous time resolved fluorescence (PI3K-HTRF) kit, which is available under Upstate™ kit (Millipore Co, Billerica, Mass., USA). This kit system measures indirectly the amount of PIP3 produced via PI3K by detecting competitive inhibition of fluorescence complex formation.
(§2) There were used three kinds of buffer solutions, i.e., reaction buffer, stop solution, and detection solution. The reaction buffer was prepared by diluting Reaction Buffer (provided in Update™ kit) with distilled water 4 times and adding DTT to a concentration of 5 mM. The stop solution was prepared by combining STOP A and B Solutions (provided in Update™ kit) in a ratio of 3:1. The detection solution was prepared by combining Detection Solution A, B and C (provided in Update™ kit) in a ratio of 1:1:18. A substrate solution and an ATP solution were prepared by diluting the 1 mM PIP2 (phosphatidyl inositol 4,5 bi-phosphate) stock solution (provided in Update™ kit) and 10 mM ATP (Sigma-aldrich Co., St. Louis, Mo., USA) stock solution with the reaction buffer to concentrations of 20 μM and 40 μM, respectively. An enzyme solution was prepared by diluting PI3Kδ (#14˜604; Upstate™ kit) with the substrate solution to the concentration of 0.2 μg/ml (final reaction concentration: 0.1 μg/ml).
(§3) The test groups were prepared by dissolving each compound in 100% DMSO at 40× the final concentration and then diluting 10-fold with the reaction buffer. 5 μl of each diluted test group solution was transferred to a 384 well low flange white flat bottom microplate (#3572, Corning Life Sciences, Lowell, Mass., USA). We performed centrifuge (1 minute, 1000 rpm) and shaking for 2 minutes after every solution-adding step in this experiment. Next, 10 μl of the enzyme solution was added to each well. A mixed solution of the substrate solution (10 μl) plus 5 μl of the 100% DMSO diluted solution without test compound (i.e., 10% DMSO solution) was used as a negative control. And also, a mixed solution of enzyme solution (10 μl) plus 5 μl of the 100% DMSO diluted solution without test compound (i.e., 10% DMSO solution) was used as a positive control. This plate was pre-incubated for 10 minutes in a 25° C. incubator. After the pre-incubation, the phosphorylation reaction was induced by adding 5 μl of the ATP solution and the plate was incubated for 30 minutes in a 25° C. incubator. This enzyme reaction was stopped by 5 μl of the stop solution and then 5 μl of the detection solution was added thereto. To obtain enough fluorescence responses, the plate was incubated for 2 hours in a 25° C. incubator protected from light.
(§4) The time-resolved fluorescence resonance energy transfer (TR-FRET) rate was measured (emission wavelength: 665 nm, 620 nm, excitation wavelength: 313 nm) by using a Flexstation3 Micro plate reader (Molecular Devices, USA). TR-FRET Rate was calculated based on the Equation 1 and using these TR-FRET Rates, % inhibition rate of each compound was calculated based on the Equation 2. The IC50 values, i.e., the concentration of a test compound that inhibits 50% of PI3Kδ activity in vitro, are generated by Softmax program (Molecular Devices, USA). TR-FRET Rate=(Signal at 665 nm emission wavelength/Signal at 620 nm emission wavelength)×10000 <Equation 1> % Inhibition Rate=[(TR-FRET Rate of the test group−TR-FRET Rate of the positive control group)/(TR-FRET Rate of the negative control group−TR-FRET Rate of the positive control group)]×100 <Equation 2>
(In TR-FRET formats the signal depends on donor and acceptor labels being close together.)

The next test addresses T2, PI3Kα (p110α/p85α)(h) (Homo sapiens, UniProt P42336).
T2 construct: purchased Upstate (Millipore Co) #14-602
In words: PI3K-HTRF in vitro enzyme assay, PI3Kα. Particulars: enzyme 0.1 μg/ml. As for the experimental part: as §1, §2, §3, §4
(§5) The compounds of the present invention were assayed for the activities of PI3K subtypes, i.e., PI3Kα, PI3Kβ and PI3Kγ, using the same procedures as in Experimental Example 1. […]

The target in another test is T3, PI3Kγ (p120γ)(h) (Homo sapiens, UniProt P48736).
T3 construct: purchased Upstate (Millipore Co) #14-558
Kind of test: PI3K-HTRF in vitro enzyme assay, PI3Kγ. Particulars: enzyme 0.4 μg/ml. As for the experimental part: as §1, §2, §3, §4, §5

T1 sequence (O00329 whole entry): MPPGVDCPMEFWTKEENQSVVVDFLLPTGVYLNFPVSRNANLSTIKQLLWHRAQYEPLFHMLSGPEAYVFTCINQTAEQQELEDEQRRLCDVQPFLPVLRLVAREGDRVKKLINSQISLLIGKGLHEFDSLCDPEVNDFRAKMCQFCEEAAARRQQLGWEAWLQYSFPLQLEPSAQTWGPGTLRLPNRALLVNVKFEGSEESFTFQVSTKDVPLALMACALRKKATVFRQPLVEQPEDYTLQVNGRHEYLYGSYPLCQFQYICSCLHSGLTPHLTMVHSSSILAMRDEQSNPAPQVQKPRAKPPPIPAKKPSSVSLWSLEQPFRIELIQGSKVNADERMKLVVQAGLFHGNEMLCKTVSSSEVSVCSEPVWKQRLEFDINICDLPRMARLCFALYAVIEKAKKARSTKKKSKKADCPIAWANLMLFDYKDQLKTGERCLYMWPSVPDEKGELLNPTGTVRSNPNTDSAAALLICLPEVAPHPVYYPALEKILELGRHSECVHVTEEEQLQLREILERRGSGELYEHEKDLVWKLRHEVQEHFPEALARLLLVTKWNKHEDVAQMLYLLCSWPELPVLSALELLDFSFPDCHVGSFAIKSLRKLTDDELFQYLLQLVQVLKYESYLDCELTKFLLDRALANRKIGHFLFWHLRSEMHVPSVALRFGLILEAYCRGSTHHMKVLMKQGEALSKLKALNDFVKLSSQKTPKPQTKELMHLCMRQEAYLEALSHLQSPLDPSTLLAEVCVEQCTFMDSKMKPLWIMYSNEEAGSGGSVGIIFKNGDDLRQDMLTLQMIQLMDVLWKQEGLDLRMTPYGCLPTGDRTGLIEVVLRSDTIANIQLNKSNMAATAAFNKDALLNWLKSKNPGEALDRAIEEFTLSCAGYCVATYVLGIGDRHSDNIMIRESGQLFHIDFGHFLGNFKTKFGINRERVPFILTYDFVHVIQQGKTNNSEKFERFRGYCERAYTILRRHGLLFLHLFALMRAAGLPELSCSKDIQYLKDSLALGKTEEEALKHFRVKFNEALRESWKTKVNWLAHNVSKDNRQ
T1 sequence (P27986 whole entry partner): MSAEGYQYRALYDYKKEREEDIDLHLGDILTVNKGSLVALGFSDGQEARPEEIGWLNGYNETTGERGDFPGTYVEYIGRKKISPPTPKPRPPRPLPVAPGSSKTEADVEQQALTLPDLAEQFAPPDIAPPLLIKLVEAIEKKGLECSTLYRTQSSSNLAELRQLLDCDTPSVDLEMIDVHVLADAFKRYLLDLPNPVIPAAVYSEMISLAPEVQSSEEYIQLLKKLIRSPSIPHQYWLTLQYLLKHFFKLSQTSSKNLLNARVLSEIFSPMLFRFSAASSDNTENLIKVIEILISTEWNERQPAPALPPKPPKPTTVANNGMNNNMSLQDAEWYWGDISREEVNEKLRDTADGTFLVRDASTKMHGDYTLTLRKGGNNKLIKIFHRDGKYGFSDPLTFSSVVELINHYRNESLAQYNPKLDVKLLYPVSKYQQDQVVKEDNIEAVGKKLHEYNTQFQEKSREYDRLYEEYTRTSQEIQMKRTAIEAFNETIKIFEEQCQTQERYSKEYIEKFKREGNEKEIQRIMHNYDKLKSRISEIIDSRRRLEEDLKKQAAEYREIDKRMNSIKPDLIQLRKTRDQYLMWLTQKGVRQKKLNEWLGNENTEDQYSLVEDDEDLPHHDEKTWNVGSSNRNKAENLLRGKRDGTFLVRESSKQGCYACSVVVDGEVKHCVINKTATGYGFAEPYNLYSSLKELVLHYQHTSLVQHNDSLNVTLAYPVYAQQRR
T3 sequence (P48736 whole entry): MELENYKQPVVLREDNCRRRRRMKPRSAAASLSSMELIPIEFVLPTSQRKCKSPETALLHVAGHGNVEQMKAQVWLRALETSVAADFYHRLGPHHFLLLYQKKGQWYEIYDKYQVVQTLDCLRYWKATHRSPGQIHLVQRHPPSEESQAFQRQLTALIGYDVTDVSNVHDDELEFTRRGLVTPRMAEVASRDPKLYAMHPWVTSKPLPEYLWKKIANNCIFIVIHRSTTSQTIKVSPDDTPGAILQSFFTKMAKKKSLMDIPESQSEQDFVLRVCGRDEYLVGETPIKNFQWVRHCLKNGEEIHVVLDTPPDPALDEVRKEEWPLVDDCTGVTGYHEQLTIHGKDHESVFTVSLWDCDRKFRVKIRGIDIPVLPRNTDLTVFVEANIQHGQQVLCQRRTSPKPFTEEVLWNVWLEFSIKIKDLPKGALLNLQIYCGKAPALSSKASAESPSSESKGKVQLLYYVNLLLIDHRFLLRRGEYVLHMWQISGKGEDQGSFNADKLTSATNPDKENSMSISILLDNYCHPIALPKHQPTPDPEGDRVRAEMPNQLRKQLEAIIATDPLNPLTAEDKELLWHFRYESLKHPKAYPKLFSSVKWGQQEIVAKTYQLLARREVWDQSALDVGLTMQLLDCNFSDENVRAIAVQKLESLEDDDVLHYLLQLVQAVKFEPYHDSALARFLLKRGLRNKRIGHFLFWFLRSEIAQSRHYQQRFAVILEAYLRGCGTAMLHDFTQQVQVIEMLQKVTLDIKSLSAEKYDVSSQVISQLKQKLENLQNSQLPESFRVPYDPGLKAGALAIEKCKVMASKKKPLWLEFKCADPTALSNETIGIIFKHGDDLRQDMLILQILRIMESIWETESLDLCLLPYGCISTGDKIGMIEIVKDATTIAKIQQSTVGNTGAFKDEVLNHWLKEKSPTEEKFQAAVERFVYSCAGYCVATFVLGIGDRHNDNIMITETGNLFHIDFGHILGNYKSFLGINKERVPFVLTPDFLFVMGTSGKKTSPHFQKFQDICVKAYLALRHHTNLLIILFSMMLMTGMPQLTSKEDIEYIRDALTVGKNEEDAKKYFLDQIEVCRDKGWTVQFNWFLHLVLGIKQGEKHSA
T2 sequence (P42336 whole entry): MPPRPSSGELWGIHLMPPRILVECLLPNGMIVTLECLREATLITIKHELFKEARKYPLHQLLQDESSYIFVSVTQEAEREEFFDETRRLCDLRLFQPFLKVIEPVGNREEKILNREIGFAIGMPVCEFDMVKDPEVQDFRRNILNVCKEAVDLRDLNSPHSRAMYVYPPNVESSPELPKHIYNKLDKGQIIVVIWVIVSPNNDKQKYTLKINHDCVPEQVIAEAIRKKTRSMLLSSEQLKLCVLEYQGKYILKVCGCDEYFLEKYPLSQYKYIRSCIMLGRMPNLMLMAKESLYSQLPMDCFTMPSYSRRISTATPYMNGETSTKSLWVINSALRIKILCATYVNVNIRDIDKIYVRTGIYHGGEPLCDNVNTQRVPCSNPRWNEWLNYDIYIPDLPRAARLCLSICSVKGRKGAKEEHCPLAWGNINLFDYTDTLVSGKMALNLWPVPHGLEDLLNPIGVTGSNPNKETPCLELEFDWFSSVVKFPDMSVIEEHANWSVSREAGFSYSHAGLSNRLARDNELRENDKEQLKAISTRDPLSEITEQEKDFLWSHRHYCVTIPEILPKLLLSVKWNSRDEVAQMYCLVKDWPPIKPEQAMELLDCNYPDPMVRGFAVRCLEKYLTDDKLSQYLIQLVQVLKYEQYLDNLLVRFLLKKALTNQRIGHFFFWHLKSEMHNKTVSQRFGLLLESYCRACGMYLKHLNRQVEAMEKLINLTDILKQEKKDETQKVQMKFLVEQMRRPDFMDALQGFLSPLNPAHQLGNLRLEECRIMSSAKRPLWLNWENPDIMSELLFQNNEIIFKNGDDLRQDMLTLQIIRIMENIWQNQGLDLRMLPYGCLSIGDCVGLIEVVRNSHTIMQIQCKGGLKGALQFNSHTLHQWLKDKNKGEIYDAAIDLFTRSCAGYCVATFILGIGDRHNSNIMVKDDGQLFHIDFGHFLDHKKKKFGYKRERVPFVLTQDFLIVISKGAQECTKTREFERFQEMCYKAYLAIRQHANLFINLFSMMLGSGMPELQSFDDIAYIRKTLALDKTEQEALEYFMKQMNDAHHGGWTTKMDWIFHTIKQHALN
T2 sequence (P27986 whole entry partner): as the sequence (P27986 whole entry partner) above

As usually defined, the IC50 is the midpoint of a concentration-inhibition curve. Low readings indicate greater potency, high ones weaker potency. Regarding `C[C@H](Nc1ncnc2ccc(C#N)cc12)c1nc2cccc(-c3cncnc3)c2c(=O)n1-c1ccccc1` [Example 1, (S)-4-((1-(4-oxo-3-phenyl-5-(pyrimidin-5-yl)-3,4-dihydroquinazolin-2-yl)ethyl)amino)quinazoline-6-carbonitrile], the IC50 against PI3Kδ (p110δ/p85α)(h) stood at 0.02 µM; at PI3Kα (p110α/p85α)(h), 3.55 µM; on PI3Kγ (p120γ)(h), 0.922 µM.

Turning to `Cc1ncc(-c2cccc3nc([C@H](C)Nc4ncnc5ccc(C#N)cc45)n(-c4ccccc4)c(=O)c23)cn1` [Example 3, (S)-4-((1-(5-(2-methylpyrimidin-5-yl)-4-oxo-3-phenyl-3,4-dihydroquinazolin-2-yl)ethyl)amino)quinazoline-6-carbonitrile], the figures for the 50% inhibitory concentration (IC50) against PI3Kδ (p110δ/p85α)(h), at PI3Kα (p110α/p85α)(h) and against PI3Kγ (p120γ)(h) were 0.022 µM, 1.77 µM and 0.262 µM, respectively.

Consider `CC[C@H](Nc1ncnc2ccc(C#N)cc12)c1nc2cccc(-c3cncnc3)c2c(=O)n1-c1ccccc1` [Example 4, (S)-4-((1-(4-oxo-3-phenyl-5-(pyrimidin-5-yl)-3,4-dihydroquinazolin-2-yl)propyl)amino)quinazoline-6-carbonitrile], for which the IC50 against PI3Kδ (p110δ/p85α)(h) turned out to be 0.014 µM; against PI3Kα (p110α/p85α)(h), 2.21 µM; on PI3Kγ (p120γ)(h), 3.63 µM.

Turning to `CC[C@H](Nc1ncnc2ccc(C#N)cc12)c1nc2cccc(-c3cnc(OC)nc3)c2c(=O)n1-c1ccccc1` [Example 5, (S)-4-((1-(5-(2-methoxypyrimidin-5-yl)-4-oxo-3-phenyl-3,4-dihydroquinazolin-2-yl)propyl)amino)quinazoline-6-carbonitrile], the IC50 came to 0.014 µM on PI3Kδ (p110δ/p85α)(h), 1.01 µM against PI3Kα (p110α/p85α)(h) and 2.15 µM against PI3Kγ (p120γ)(h).

For the compound `CCOc1ncc(-c2cccc3nc([C@H](CC)Nc4ncnc5ccc(C#N)cc45)n(-c4ccccc4)c(=O)c23)cn1` [Example 6, (S)-4-((1-(5-(2-ethoxypyrimidin-5-yl)-4-oxo-3-phenyl-3,4-dihydroquinazolin-2-yl)propyl)amino)quinazoline-6-carbonitrile], the IC50 was 0.015 µM against PI3Kδ (p110δ/p85α)(h), 1.51 µM against PI3Kα (p110α/p85α)(h) and 1.96 µM on PI3Kγ (p120γ)(h).

For the compound `CC[C@H](Nc1ncnc2ccc(C#N)cc12)c1nc2cccc(-c3cnc(N(C)C)nc3)c2c(=O)n1-c1ccccc1` [Example 7, (S)-4-((1-(5-(2-(dimethylamino)pyrimidin-5-yl)-4-oxo-3-phenyl-3,4-dihydroquinazolin-2-yl)propyl)amino)quinazoline-6-carbonitrile], the IC50 at PI3Kδ (p110δ/p85α)(h) turned out to be 0.02 µM; at PI3Kα (p110α/p85α)(h), 0.638 µM; at PI3Kγ (p120γ)(h) it was 0.747 µM.

For the compound `CC[C@H](Nc1ncnc2ccc(C#N)cc12)c1nc2cccc(-c3cnc(SC)nc3)c2c(=O)n1-c1ccccc1` [Example 8, (S)-4-((1-(5-(2-(methylsulfanyl)pyrimidin-5-yl)-4-oxo-3-phenyl-3,4-dihydroquinazolin-2-yl)propyl)amino)quinazoline-6-carbonitrile], the figures for the IC50 against PI3Kδ (p110δ/p85α)(h), against PI3Kα (p110α/p85α)(h) and at PI3Kγ (p120γ)(h) were 0.018 µM, 0.787 µM and 1.72 µM, respectively.

Turning to `CCC[C@H](Nc1ncnc2ccc(C#N)cc12)c1nc2cccc(-c3cnc(C)nc3)c2c(=O)n1-c1ccccc1` [Example 9, (S)-4-((1-(5-(2-methylpyrimidin-5-yl)-4-oxo-3-phenyl-3,4-dihydroquinazolin-2-yl)butyl)amino)quinazoline-6-carbonitrile], the IC50 on PI3Kδ (p110δ/p85α)(h) is 0.018 µM; against PI3Kα (p110α/p85α)(h), 2.85 µM; at PI3Kγ (p120γ)(h), 1.15 µM.

With `CC(C)[C@H](Nc1ncnc2ccc(C#N)cc12)c1nc2cccc(-c3cnc(N)nc3)c2c(=O)n1-c1ccccc1` [Example 13, (S)-4-((1-(5-(2-aminopyrimidin-5-yl)-4-oxo-3-phenyl-3,4-dihydroquinazolin-2-yl)-2-methylpropyl)amino)quinazoline-6-carbonitrile], the IC50 at PI3Kδ (p110δ/p85α)(h) came to 0.024 µM; at PI3Kα (p110α/p85α)(h) it was 1.48 µM; against PI3Kγ (p120γ)(h) it was 2.89 µM.

With `N#Cc1ccc2ncnc(N[C@H](c3nc4cccc(-c5cncnc5)c4c(=O)n3-c3ccccc3)C3CC3)c2c1` [Example 14, (S)-4-((cyclopropyl(4-oxo-3-phenyl-5-(pyrimidin-5-yl)-3,4-dihydroquinazolin-2-yl)methyl)amino)quinazoline-6-carbonitrile], the IC50 at PI3Kδ (p110δ/p85α)(h) is 0.003 µM; against PI3Kα (p110α/p85α)(h), 0.841 µM; against PI3Kγ (p120γ)(h), 0.537 µM.

On to `COc1ncc(-c2cccc3nc([C@@H](Nc4ncnc5ccc(C#N)cc45)C4CC4)n(-c4ccccc4)c(=O)c23)cn1` [Example 15, (S)-4-((cyclopropyl(5-(2-methoxypyrimidin-5-yl)-4-oxo-3-phenyl-3,4-dihydroquinazolin-2-yl)methyl)amino)quinazoline-6-carbonitrile], for which the IC50 on PI3Kδ (p110δ/p85α)(h) amounted to 0.017 µM; against PI3Kα (p110α/p85α)(h), 0.751 µM; at PI3Kγ (p120γ)(h) it was 0.364 µM.

`CCOc1ncc(-c2cccc3nc([C@@H](Nc4ncnc5ccc(C#N)cc45)C4CC4)n(-c4ccccc4)c(=O)c23)cn1` [Example 16, (S)-4-((cyclopropyl(5-(2-ethoxypyrimidin-5-yl)-4-oxo-3-phenyl-3,4-dihydroquinazolin-2-yl)methyl)amino)quinazoline-6-carbonitrile]: the values for the half-maximal inhibitory concentration (IC50) on PI3Kδ (p110δ/p85α)(h), against PI3Kα (p110α/p85α)(h) and at PI3Kγ (p120γ)(h) were 0.004 µM, 1.29 µM and 0.434 µM, respectively.

Consider `C[C@H](Nc1ncnc2cccc(F)c12)c1nc2cccc(-c3cncnc3)c2c(=O)n1-c1ccccc1` [Example 22, (S)-2-(1-((5-fluoroquinazolin-4-yl)amino)ethyl)-3-phenyl-5-(pyrimidin-5-yl)quinazolin-4(3H)-one], for which the IC50 on PI3Kδ (p110δ/p85α)(h) was found to be 0.03 µM; on PI3Kγ (p120γ)(h), 5.94 µM.

With `C[C@H](Nc1ncnc2cccc(F)c12)c1nc2cccc(-c3cnc(N)nc3)c2c(=O)n1-c1ccccc1` [Example 23, (S)-5-(2-aminopyrimidin-5-yl)-2-(1-((5-fluoroquinazolin-4-yl)amino)ethyl)-3-phenylquinazolin-4(3H)-one], the IC50 at PI3Kδ (p110δ/p85α)(h) was 0.019 µM; against PI3Kα (p110α/p85α)(h), 2.73 µM; against PI3Kγ (p120γ)(h) it was 1.39 µM.

With `CC[C@H](Nc1ncnc2cccc(F)c12)c1nc2cccc(-c3cncnc3)c2c(=O)n1-c1ccccc1` [Example 24, (S)-2-(1-((5-fluoroquinazolin-4-yl)amino)propyl)-3-phenyl-5-(pyrimidin-5-yl)quinazolin-4(3H)-one], the IC50 at PI3Kδ (p110δ/p85α)(h) turned out to be 0.017 µM; against PI3Kα (p110α/p85α)(h), 8.12 µM; at PI3Kγ (p120γ)(h), 4.28 µM.

Consider `CC(C)[C@H](Nc1ncnc2cccc(F)c12)c1nc2cccc(-c3cncnc3)c2c(=O)n1-c1ccccc1` [Example 28, (S)-2-(1-((5-fluoroquinazolin-4-yl)amino)-2-methylpropyl)-3-phenyl-5-(pyrimidin-5-yl)quinazolin-4(3H)-one], for which the IC50 against PI3Kδ (p110δ/p85α)(h) was 0.019 µM.

Regarding `CC(C)[C@H](Nc1ncnc2cccc(F)c12)c1cc2cccc(-c3cncnc3)c2c(=O)n1-c1ccccc1` [Example 45, (S)-3-(1-((5-fluoroquinazolin-4-yl)amino)-2-methylpropyl)-2-phenyl-8-(pyrimidin-5-yl)isoquinolin-1(2H)-one], the IC50 against PI3Kδ (p110δ/p85α)(h) was 0.017 µM; against PI3Kγ (p120γ)(h) it was greater than 1 µM.

In the case of `Cc1ncc(-c2cccc3cc([C@@H](Nc4ncnc5cccc(F)c45)C(C)C)n(-c4ccccc4)c(=O)c23)cn1` [Example 47, (S)-3-(1-((5-fluoroquinazolin-4-yl)amino)-2-methylpropyl)-8-(2-methylpyrimidin-5-yl)-2-phenylisoquinolin-1(2H)-one], the IC50 is 0.023 µM at PI3Kδ (p110δ/p85α)(h) and greater than 1 µM against PI3Kγ (p120γ)(h).

The record behind these values is patent US10941136B2, “Quinazoline derivative or its salt and pharmaceutical composition comprising the same” (YUHAN CORPORATION, priority 2016, dated 2021).
